For experiment [1], the target named is T1, 3-hydroxy-3-methylglutaryl-coenzyme A reductase (Homo sapiens, UniProt P04035).
T1 sequence (P04035 whole entry): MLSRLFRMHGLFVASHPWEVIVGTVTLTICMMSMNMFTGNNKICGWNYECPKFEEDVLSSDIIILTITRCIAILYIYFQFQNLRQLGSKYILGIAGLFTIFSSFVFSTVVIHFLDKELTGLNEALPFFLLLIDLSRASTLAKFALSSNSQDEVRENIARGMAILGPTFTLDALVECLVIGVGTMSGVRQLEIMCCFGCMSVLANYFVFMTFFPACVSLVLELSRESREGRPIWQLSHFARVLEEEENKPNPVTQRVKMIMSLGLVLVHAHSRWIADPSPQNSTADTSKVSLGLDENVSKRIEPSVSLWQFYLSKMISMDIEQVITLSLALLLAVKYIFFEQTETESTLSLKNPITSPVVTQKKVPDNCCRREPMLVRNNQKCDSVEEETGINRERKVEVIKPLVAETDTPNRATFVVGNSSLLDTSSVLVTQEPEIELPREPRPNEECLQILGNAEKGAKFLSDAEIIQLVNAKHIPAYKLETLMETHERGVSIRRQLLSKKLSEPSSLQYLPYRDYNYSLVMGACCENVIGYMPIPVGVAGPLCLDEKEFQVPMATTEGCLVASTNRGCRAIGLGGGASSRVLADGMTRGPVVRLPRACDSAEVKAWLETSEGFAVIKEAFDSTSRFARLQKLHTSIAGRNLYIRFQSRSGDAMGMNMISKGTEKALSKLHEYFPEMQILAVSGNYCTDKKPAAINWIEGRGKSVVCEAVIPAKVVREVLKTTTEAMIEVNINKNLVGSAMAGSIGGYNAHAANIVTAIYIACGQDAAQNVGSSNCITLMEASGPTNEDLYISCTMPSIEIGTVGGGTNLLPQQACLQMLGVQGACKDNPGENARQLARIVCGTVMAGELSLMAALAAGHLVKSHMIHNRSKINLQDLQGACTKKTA
Description: Inhibition of HMG-CoA Reductase (unknown origin).

The subject of another experiment is Ramos. Description: Antitumor activity against human Ramos cells. In kind it is functional, cell-based.

By IC50 is commonly meant the midpoint of a concentration-inhibition curve. Regarding `CC(C)c1c(C(=O)Nc2ccccc2)c(-c2ccccc2)c(-c2ccc(F)cc2)n1CC[C@@H]1C[C@@H](O)CC(=O)O1` [ATORVASTATIN LACTONE], the IC50 in experiment [1] turned out to be 0.007 µM. Same read-out and setting: the same measure for `CC(C)c1ccc(-c2ccc(F)cc2)n1CC[C@@H]1C[C@@H](O)CC(=O)O1`: 0.23 µM. For the compound `[2H]C([2H])(NCc1ccccc1)P(=O)(c1cccc(C)c1)c1cccc(C)c1`, the midpoint of inhibition with Ramos, the IC50, lay at 4.2 µM. Consider `Cc1cccc(P(=O)(CNCc2ccccc2)c2cccc(C)c2)c1`, for which, in the experiment on Ramos, the 50% inhibitory concentration (IC50) was found to be 38 µM.

Source of the values: ChEMBL document CHEMBL5523724, “Rational Molecular Editing: A New Paradigm in Drug Discovery” (J Med Chem, 2024).
